Test results: patent US20180243298A1, “TRPV3 MODULATORS” (AbbVie Inc., priority 2015, published 2018)

Biological target: T1, human TRPV3 (Homo sapiens, UniProt Q8NET8)
T1 construct: expressed in transfected cells; host or cells: HEK293
T1 sequence (Q8NET8 1-790): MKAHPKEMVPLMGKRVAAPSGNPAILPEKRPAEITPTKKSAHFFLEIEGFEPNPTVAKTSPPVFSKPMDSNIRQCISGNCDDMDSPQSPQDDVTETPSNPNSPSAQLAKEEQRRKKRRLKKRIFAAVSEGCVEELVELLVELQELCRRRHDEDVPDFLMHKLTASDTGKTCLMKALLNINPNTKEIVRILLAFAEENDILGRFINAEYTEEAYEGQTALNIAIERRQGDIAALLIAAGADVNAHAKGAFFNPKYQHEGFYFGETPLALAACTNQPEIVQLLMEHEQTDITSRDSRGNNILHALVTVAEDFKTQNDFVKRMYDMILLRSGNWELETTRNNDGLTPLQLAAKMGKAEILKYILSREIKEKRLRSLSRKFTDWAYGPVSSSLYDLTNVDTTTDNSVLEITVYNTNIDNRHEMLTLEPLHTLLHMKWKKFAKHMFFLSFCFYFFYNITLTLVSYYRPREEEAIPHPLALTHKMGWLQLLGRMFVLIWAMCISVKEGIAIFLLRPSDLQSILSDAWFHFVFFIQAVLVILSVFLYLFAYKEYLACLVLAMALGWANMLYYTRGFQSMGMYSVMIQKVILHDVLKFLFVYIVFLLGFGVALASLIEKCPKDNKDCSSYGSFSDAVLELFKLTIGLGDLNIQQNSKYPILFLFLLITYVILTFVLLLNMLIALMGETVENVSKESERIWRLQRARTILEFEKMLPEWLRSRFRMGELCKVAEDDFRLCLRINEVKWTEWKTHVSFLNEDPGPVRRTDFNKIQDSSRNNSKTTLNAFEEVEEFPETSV
Assay: Calcium flux assay (FLIPR TETRA), recombinant HEK293 cells expressing TRPV3, 2-APB response
Format: cell-based
Details: 2-APB at its EC80
In short: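 HEK293 cells stably expressing human or mouse TRPV3, loaded with Calcium-4 dye for 90–120 min, read on FLIPR TETRA. Peak fluorescence rise over baseline expressed as percent of the maximal response to 2-APB at its EC80 without compound.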

COc1ncnc(OC)c1C(=O)Nc1nc(C(F)(F)F)c(S(=O)(=O)Cc2ccccc2)s1 [Example 111, N-[5-benzylsulfonyl-4-(trifluoromethyl)-1,3-thiazol-2-yl]-4,6-dimethoxy-pyrimidine-5-carboxamide]
IC50: 0.5 to 1 µM

COc1ncnc(OC)c1C(=O)Nc1nc(-c2ccc(C(F)(F)F)cn2)c(C(C)O)s1 (single isomer, unassigned) [Example 83, N-{5-[(1R*)-1-hydroxyethyl]-4-[5-(trifluoromethyl)pyridin-2-yl]-1,3-thiazol-2-yl}-4,6-dimethoxypyrimidine-5-carboxamide]
IC50: 0.1 to 0.5 µM

COc1ncnc(OC)c1C(=O)Nc1nc(C(F)(F)F)c(-c2ccnc(C3(C#N)CC3)c2)s1 [Example 151, N-{5-[2-(1-cyanocyclopropyl)pyridin-4-yl]-4-(trifluoromethyl)-1,3-thiazol-2-yl}-4,6-dimethoxypyrimidine-5-carboxamide]
IC50: < 0.05 µM

COc1ncnc(OC)c1C(=O)Nc1nc(C(F)(F)F)c(C(=O)c2ccccn2)s1 [Example 127, 4,6-dimethoxy-N-[5-(pyridin-2-ylcarbonyl)-4-(trifluoromethyl)-1,3-thiazol-2-yl]pyrimidine-5-carboxamide]
IC50: > 1 µM

CCSc1ncnc(OC)c1C(=O)Nc1nc(C(F)(F)F)c(-c2ccccc2C#N)s1 [Example 160, N-[5-(2-cyanophenyl)-4-(trifluoromethyl)-1,3-thiazol-2-yl]-4-(ethylsulfanyl)-6-methoxypyrimidine-5-carboxamide]
IC50: < 0.05 µM

COc1ncnc(OC)c1C(=O)Nc1nc(C2CCCC2)cs1 [Example 98, N-(4-cyclopentyl-1,3-thiazol-2-yl)-4,6-dimethoxypyrimidine-5-carboxamide]
IC50: 0.1 to 0.5 µM

COc1ncnc(OC)c1C(=O)Nc1nc(C(F)(F)F)c(C(C)=O)s1 [Example 133, N-[5-acetyl-4-(trifluoromethyl)-1,3-thiazol-2-yl]-4,6-dimethoxypyrimidine-5-carboxamide]
IC50: 0.1 to 0.5 µM

COc1ncnc(OC)c1C(=O)Nc1nc(C(F)(F)F)c(CCO)s1 [Example 22, N-[5-(2-hydroxyethyl)-4-(trifluoromethyl)-1,3-thiazol-2-yl]-4,6-dimethoxypyrimidine-5-carboxamide]
IC50: > 1 µM

COc1ncnc(OC)c1C(=O)Nc1nc(C(F)(F)F)c(-c2cccc(CC#N)n2)s1 [Example 155, N-{5-[6-(cyanomethyl)pyridin-2-yl]-4-(trifluoromethyl)-1,3-thiazol-2-yl}-4,6-dimethoxypyrimidine-5-carboxamide]
IC50: 0.1 to 0.5 µM

COc1ncnc(OC)c1C(=O)Nc1nc(C(C)(C)C)c(C#N)s1 [Example 189, N-(4-tert-butyl-5-cyano-1,3-thiazol-2-yl)-4,6-dimethoxypyrimidine-5-carboxamide]
IC50: < 0.05 µM

COc1ncnc(OC)c1C(=O)Nc1nc(/C=C/c2ccc(F)cc2)cs1 [Example 106, N-{4-[(E)-2-(4-fluorophenyl)ethenyl]-1,3-thiazol-2-yl}-4,6-dimethoxypyrimidine-5-carboxamide]
IC50: 0.5 to 1 µM

COc1ncnc(OC)c1C(=O)Nc1nc(C(F)(F)F)c(C2=CCOCC2)s1 [Example 38, N-[5-(3,6-dihydro-2H-pyran-4-yl)-4-(trifluoromethyl)-1,3-thiazol-2-yl]-4,6-dimethoxypyrimidine-5-carboxamide]
IC50: < 0.05 µM

COc1ncnc(OC)c1C(=O)Nc1nc(C(F)(F)F)c(-c2ccnn2C)s1 [Example 176, 4,6-dimethoxy-N-[5-(1-methyl-1H-pyrazol-5-yl)-4-(trifluoromethyl)-1,3-thiazol-2-yl]pyrimidine-5-carboxamide]
IC50: 0.1 to 0.5 µM

COCCN(C)S(=O)(=O)c1cccc(-c2sc(NC(=O)c3c(OC)ncnc3OC)nc2C(F)(F)F)c1 [Example 197, 4,6-dimethoxy-N-[5-{3-[(2-methoxyethyl)(methyl)sulfamoyl]phenyl}-4-(trifluoromethyl)-1,3-thiazol-2-yl]pyrimidine-5-carboxamide]
IC50: < 0.05 µM

COc1ncnc(OC)c1C(=O)Nc1nc(C(F)(F)F)c(C=O)s1 [Example 47, N-[5-formyl-4-(trifluoromethyl)-1,3-thiazol-2-yl]-4,6-dimethoxypyrimidine-5-carboxamide]
IC50: > 1 µM

COc1ncnc(OC)c1C(=O)Nc1nc(C(F)(F)F)c(-c2ocnc2C)s1 [Example 141, 4,6-dimethoxy-N-[5-(4-methyl-1,3-oxazol-5-yl)-4-(trifluoromethyl)-1,3-thiazol-2-yl]pyrimidine-5-carboxamide]
IC50: 0.05 to 0.1 µM

COc1ncnc(OC)c1C(=O)Nc1nc(-c2ccc(C(F)(F)F)cn2)c(C#N)s1 [Example 97, N-{5-cyano-4-[5-(trifluoromethyl)pyridin-2-yl]-1,3-thiazol-2-yl}-4,6-dimethoxypyrimidine-5-carboxamide]
IC50: 0.05 to 0.1 µM

COc1ncnc(OC)c1C(=O)Nc1nc(C2CCC2)c(F)s1 [Example 101, N-(4-cyclobutyl-5-fluoro-1,3-thiazol-2-yl)-4,6-dimethoxypyrimidine-5-carboxamide]
IC50: 0.05 to 0.1 µM

COc1ncnc(OC)c1C(=O)Nc1nc(C(F)(F)F)c(-c2ccccn2)s1 [Example 45, 4,6-dimethoxy-N-[5-(pyridin-2-yl)-4-(trifluoromethyl)-1,3-thiazol-2-yl]pyrimidine-5-carboxamide]
IC50: 0.1 to 0.5 µM

COc1ncnc(OC)c1C(=O)Nc1nc(C(F)(F)F)c(-c2cccc(NS(=O)(=O)N(C)C)c2)s1 [Example 201, N-[5-{3-[(dimethylsulfamoyl)amino]phenyl}-4-(trifluoromethyl)-1,3-thiazol-2-yl]-4,6-dimethoxypyrimidine-5-carboxamide]
IC50: 0.05 to 0.1 µM

COc1ncnc(OC)c1C(=O)Nc1nc(-c2ccc(C(F)(F)F)cn2)c(S(C)(=O)=O)s1 [Example 114, 4,6-dimethoxy-N-[5-methylsulfonyl-4-[5-(trifluoromethyl)-2-pyridyl]-1,3-thiazol-2-yl]pyrimidine-5-carboxamide]
IC50: 0.1 to 0.5 µM

COc1ncnc(OC)c1C(=O)Nc1nc(C(F)(F)F)c(Cl)s1 [Example 63, N-[5-chloro-4-(trifluoromethyl)-1,3-thiazol-2-yl]-4,6-dimethoxypyrimidine-5-carboxamide]
IC50: < 0.05 µM

COc1ncnc(OC)c1C(=O)Nc1nc(C(F)(F)F)c(C2=COCCC2)s1 [Example 147, N-[5-(3,4-dihydro-2H-pyran-5-yl)-4-(trifluoromethyl)-1,3-thiazol-2-yl]-4,6-dimethoxypyrimidine-5-carboxamide]
IC50: 0.05 to 0.1 µM

COc1ncnc(OC)c1C(=O)Nc1nc(C(F)(F)F)c(-c2cnco2)s1 [Example 140, 4,6-dimethoxy-N-[5-(1,3-oxazol-5-yl)-4-(trifluoromethyl)-1,3-thiazol-2-yl]pyrimidine-5-carboxamide]
IC50: 0.05 to 0.1 µM

COc1ncnc(OC)c1C(=O)Nc1nc(/C=C/C(C)(C)C)cs1 [Example 104, N-{4-[(1E)-3,3-dimethylbut-1-en-1-yl]-1,3-thiazol-2-yl}-4,6-dimethoxypyrimidine-5-carboxamide]
IC50: > 1 µM

COc1ncnc(OC)c1C(=O)Nc1nc(C(F)(F)F)c(/C(C)=N/O)s1 [Example 134, N-{5-[(1E)-N-hydroxyethanimidoyl]-4-(trifluoromethyl)-1,3-thiazol-2-yl}-4,6-dimethoxypyrimidine-5-carboxamide]
IC50: 0.1 to 0.5 µM

COc1ncnc(OC)c1C(=O)Nc1nc(-c2ccc(C(F)(F)F)cn2)c(CCCO)s1 [Example 96, N-{5-(3-hydroxypropyl)-4-[5-(trifluoromethyl)pyridin-2-yl]-1,3-thiazol-2-yl}-4,6-dimethoxypyrimidine-5-carboxamide]
IC50: 0.1 to 0.5 µM

COc1ncnc(OC)c1C(=O)Nc1nc(C(F)(F)F)c(CNC2CCCC2)s1 [Example 51, N-{5-[(cyclopentylamino)methyl]-4-(trifluoromethyl)-1,3-thiazol-2-yl}-4,6-dimethoxypyrimidine-5-carboxamide]
IC50: 0.1 to 0.5 µM

COc1ncnc(OC)c1C(=O)Nc1nc(C(F)(F)F)c(C2CCCO2)s1 (centres unmarked) [Example 144, 4,6-dimethoxy-N-[5-(tetrahydrofuran-2-yl)-4-(trifluoromethyl)-1,3-thiazol-2-yl]pyrimidine-5-carboxamide]
IC50: 0.05 to 0.1 µM

COc1ncnc(OC)c1C(=O)Nc1nc(C(F)(F)F)c(/C(=N/O)c2ccc(F)cn2)s1 [Example 132, N-{5-[(E)-(5-fluoropyridin-2-yl)(hydroxyimino)methyl]-4-(trifluoromethyl)-1,3-thiazol-2-yl}-4,6-dimethoxypyrimidine-5-carboxamide]
IC50: < 0.05 µM

CCOc1ncnc(OCC)c1C(=O)Nc1nc(C(F)(F)F)c(-c2ccc(Cl)cc2)s1 [Example 5, N-[5-(4-chlorophenyl)-4-(trifluoromethyl)-1,3-thiazol-2-yl]-4,6-diethoxypyrimidine-5-carboxamide]
IC50: 0.5 to 1 µM

COc1ncnc(OC)c1C(=O)Nc1nc(CC(C)(C)C)cs1 [Example 191, N-[4-(2,2-dimethylpropyl)-1,3-thiazol-2-yl]-4,6-dimethoxypyrimidine-5-carboxamide]
IC50: 0.05 to 0.1 µM
